Assay results: patent US9062041B2 (Bayer Intellectual Property GmbH, priority 2011, dated 2015)

Tests used:
cumulus-oocyte complexes = assay: Cumulus expansion test in vitro; type: cell-based, mice (strain: B6D2F1); settings: for inhibition at 1 µM / inhibition at 0.5 µM: Mus musculus, 0.3 μM PGE2 for stimulation; for inhibition at 1 µM: read-out: % reduction at 1 μM (reduction in the cumulus expansion); for inhibition at 0.5 µM: read-out: % reduction at 0.5 μm (reduction in the cumulus expansion)
Method: 4.2. Cumulus Expansions Test In Vitro In immature female mice (strain: B6D2F1 from Charles River), at an age of 14-18 days, the folliculogenesis was induced by a single administration (intraperitoneal) of 10 IU of PMSG (pregnant mare serum gonadotropin; Sigma G-4877, Lot 68H0909). 47-50 hours after the injection, the ovaries were removed and the cumulus-oocyte complexes removed. At this stage, the cumulus complex is not yet expanded. The cumulus-oocyte complexes were now incubated for 20-24 hours with prostaglandin E2 (PGE) (0.3 μM), vehicle control (ethanol) or test substances. Medium: alpha-MEM medium with 0.1 mM IBMX, pyruvate (0.23 mM), glutamine (2 mM), pen/strep 100 IU/ml pen. and 100 μg/ml strep.), HSA (8 mg/ml) and foetal bovine serum (FBS, 10%). The cumulus expansion was then established through the subdivision into four stages (after Vanderhyden et al. Dev Biol. 1990 August; 140(2):307-317).

[1] = target: EP2 subtype of the human PGE2 receptor (Homo sapiens, UniProt P43116); assay: cAMP antagonism test on the human EP2 receptor (HTRF cAMP detection); type: cell-based; settings: hEP2 receptor, read-out: Antagonism hEP2 IC50
Chain of EP2 subtype of the human PGE2 receptor (P43116 whole entry): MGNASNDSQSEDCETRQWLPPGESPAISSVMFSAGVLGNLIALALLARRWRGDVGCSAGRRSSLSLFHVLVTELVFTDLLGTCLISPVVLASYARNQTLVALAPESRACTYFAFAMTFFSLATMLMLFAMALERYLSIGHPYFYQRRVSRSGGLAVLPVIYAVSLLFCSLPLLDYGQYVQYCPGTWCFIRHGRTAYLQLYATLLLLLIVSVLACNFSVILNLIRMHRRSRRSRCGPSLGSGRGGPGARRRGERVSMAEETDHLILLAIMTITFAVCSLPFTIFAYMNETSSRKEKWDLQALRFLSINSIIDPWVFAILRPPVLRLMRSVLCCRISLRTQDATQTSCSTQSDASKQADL
Summary of the method: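 Read-out is a competitive HTRF for cAMP: lysate cAMP displaces cAMP-d2 from Eu cryptate-labelled antibody, and antagonism raises the 665/620 nm ratio. Compound (0.8 nM–16.5 μM) added to EP2 cells 20 min at RT before 60 min PGE2 challenge (3× stock 1.5 nM) with IBMX, followed by 20 min lysis.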

[2] = target: EP4 subtype of the human PGE2 receptor (Homo sapiens, UniProt P35408); assay: cAMP antagonism test on the human EP4 receptor (HTRF cAMP detection); type: cell-based; settings: selectivity towards hEP4, IC50 measured by cAMP antagonism test
Chain of EP4 subtype of the human PGE2 receptor (P35408 whole entry): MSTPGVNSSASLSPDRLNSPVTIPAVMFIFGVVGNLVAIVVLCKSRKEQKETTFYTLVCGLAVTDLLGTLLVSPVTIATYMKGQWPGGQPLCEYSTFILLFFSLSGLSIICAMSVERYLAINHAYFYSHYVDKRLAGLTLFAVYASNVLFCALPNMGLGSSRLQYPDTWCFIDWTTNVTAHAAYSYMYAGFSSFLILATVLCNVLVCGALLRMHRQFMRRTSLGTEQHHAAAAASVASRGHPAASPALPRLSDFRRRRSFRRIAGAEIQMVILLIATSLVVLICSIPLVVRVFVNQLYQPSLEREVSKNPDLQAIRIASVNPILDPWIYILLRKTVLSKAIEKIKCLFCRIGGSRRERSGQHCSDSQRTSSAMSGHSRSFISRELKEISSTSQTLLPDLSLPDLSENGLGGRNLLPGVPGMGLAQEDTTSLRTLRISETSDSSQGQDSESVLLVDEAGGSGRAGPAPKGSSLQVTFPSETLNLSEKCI
Summary of the method: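 Competitive HTRF cAMP read-out (cAMP-d2 vs Eu-cryptate anti-cAMP antibody, 665/620 nm ratio) on lysed human EP4 cells. Compound (0.8 nM–16.5 μM) applied 20 min at RT before 60 min PGE2 challenge (3× solution 0.3 nM, IBMX present); 20 min lysis precedes reading.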

human PGD receptor = target: T1, human PGD receptor (Homo sapiens, UniProt Q13258); assay: cAMP antagonism test on the human prostaglandin D receptor (HTRF cAMP detection); type: cell-based; settings: selectivity towards hDP, IC50 measured by cAMP antagonism test
T1 sequence (Q13258 1-359): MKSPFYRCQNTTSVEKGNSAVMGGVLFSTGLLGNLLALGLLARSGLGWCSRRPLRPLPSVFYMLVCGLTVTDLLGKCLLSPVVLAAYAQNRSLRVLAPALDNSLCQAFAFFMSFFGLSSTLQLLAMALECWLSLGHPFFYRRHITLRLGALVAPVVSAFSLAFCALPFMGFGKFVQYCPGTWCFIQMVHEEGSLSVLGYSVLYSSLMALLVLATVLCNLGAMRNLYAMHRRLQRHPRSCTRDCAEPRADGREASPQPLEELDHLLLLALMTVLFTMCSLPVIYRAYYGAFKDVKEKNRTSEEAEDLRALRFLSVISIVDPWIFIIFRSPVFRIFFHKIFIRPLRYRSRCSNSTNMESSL
Summary of the method: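 HTRF competition read-out (665/620 nm ratio ×10000), where higher FRET means less cAMP, i.e. antagonism. Compounds (0.8 nM–16.5 μM) were preincubated 20 min at RT with cells and cAMP-d2, PGD2 (3× solution, 6 nM) in IBMX-containing PBS added for 30 min at RT, then cells lysed 20 min.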

Row | SMILES | suppression of the cumulus expansion (cumulus-oocyte complexes; concentration of 100-200 μM, PGE2 0.3 μM) | IC50 [1] | Selectivity hEP2/hEP4 [2] | Selectivity hEP2/hDP (human PGD receptor) | inhibition at 1 µM (cumulus-oocyte complexes) | inhibition at 0.5 µM (cumulus-oocyte complexes)
1 | CC(C)Oc1ccc2c(=O)c3cc(C(=O)O)ccc3oc2c1 [AH6809, reference compound] | ca. 30% |  |  |  |  | 
2 | COCCNC(=O)c1ccc2nn(CC3CCN(C(=O)c4ccc(Oc5ccc(C(F)(F)F)cn5)cc4)CC3)cc2c1C [Example 345, N-(2-methoxyethyl)-4-methyl-2-{[1-(4-{[5-(trifluoromethyl)pyridin-2-yl]oxy}-benzoyl)piperidin-4-yl]methyl}-2H-indazol-5-carboxamide] |  | 6.26 nM | xxx (xxx > 100) | xxx (xxx > 100) | 36% | 18%
3 | Cc1c(C(=O)NCC(F)(F)F)ccc2nn(CC3CCN(C(=O)c4ccc(Oc5ccc(C(F)(F)F)nc5)cc4)CC3)cc12 [Example 303, 4-methyl-N-(2,2,2-trifluoroethyl)-2-{[1-(4-{[6-(trifluoromethyl)pyridin-3-yl]-oxy}benzoyl)piperidin-4-yl]methyl}-2H-indazol-5-carboxamide] |  | 13.9 nM | xxx (xxx > 100) | xxx (xxx > 100) | 47% | 38%
4 | COCCNC(=O)c1ccc2nn(CC3CCN(C(=O)c4ccc(-c5ccc(F)cc5)cc4)CC3)cc2c1C [Example 5, 2-({1-[(4′-fluorobiphenyl-4-yl)carbonyl]piperidin-4-yl}methyl)-N-(2-methoxy-ethyl)-4-methyl-2H-indazol-5-carboxamide] |  | 5.11 nM | xxx (xxx > 100) | xxx (xxx > 100) | 59% | 56%
5 | COCCNC(=O)c1ccc2nn(CC3CCN(C(=O)c4ccccc4OC)CC3)cc2c1C [Example 24, 2-{[1-(2-methoxy-benzoyl)piperidin-4-yl]methyl}-N-(2-methoxyethyl)-4-methyl-2H-indazol-5-carboxamide] |  | 60.1 nM | xxx (xxx > 100) | xxx (xxx > 100) |  | 
6 | COCCNC(=O)c1ccc2nn(CC3CN(C(=O)c4ccc(C5CC5)cc4)C3)cc2c1C [Example 124, 2-{[1-(4-cyclopropylbenzoyl)azetidin-3-yl]methyl}-N-(2-methoxyethyl)-4-methyl-2H-indazol-5-carboxamide] |  | 7.99 nM | xxx (xxx > 100) | xxx (xxx > 100) |  | 
7 | COCCNC(=O)c1ccc2nn(CC3CCN(C(=O)c4ccc(-c5ccc(C)c(C)c5)cc4F)CC3)cc2c1C [Example 363, 2-({1-[(3-fluoro-3′,4′-dimethylbiphenyl-4-yl)carbonyl]piperidin-4-yl}methyl)-N-(2-methoxyethyl)-4-methyl-2H-indazol-5-carboxamide] |  | 5.48 nM | xxx (xxx > 100) | xxx (xxx > 100) |  | 
8 | Cc1c(C(=O)NCC2CCCCO2)ccc2nn(CC3CN(C(=O)c4ccc(Cl)cc4)C3)cc12 (single isomer, unassigned) [Example 146, (S or R)-2-{[1-(4-chlorobenzoyl)azetidin-3-yl]methyl}-4-methyl-N-(3,4,5,6-tetrahydro-2H-pyran-2-ylmethyl)-2H-indazol-5-carboxamide] |  | 52.6 nM | xxx (xxx > 100) | xxx (xxx > 100) |  | 
9 | Cc1c(C(=O)NCC2COCCO2)ccc2nn(CC3CCN(C(=O)c4ccc(Cl)cc4)CC3)cc12 (racemic) [Example 413, (+/−)-2-{[1-(4-chlorobenzoyl)piperidin-4-yl]methyl}-N-(1,4-dioxan-2-ylmethyl)-4-methyl-2H-indazol-5-carboxamide] |  | 37.8 nM | xxx (xxx > 100) | xxx (xxx > 100) |  | 
10 | COCCNC(=O)c1ccc2nn(CC3CCN(C(=O)c4ccc(Oc5ccc(C#N)cc5)cc4)CC3)cc2c1C [Example 330, 2-({1-[4-(4-cyanophenoxy)benzoyl]piperidin-4-yl}methyl)-N-(2-methoxyethyl)-4-methyl-2H-indazol-5-carboxamide] |  | 9.53 nM | xxx (xxx > 100) | xxx (xxx > 100) |  | 
11 | COCCNC(=O)c1cc2cn(CC3CCN(C(=O)c4ccc(Cl)c(C(F)(F)F)c4)CC3)nc2cc1C [Example 209, 2-({1-[4-chloro-3-(trifluoromethyl)benzoyl]piperidin-4-yl}methyl)-N-(2-methoxyethyl)-6-methyl-2H-indazol-5-carboxamide] |  | 25.1 nM | xxx (xxx > 100) | xxx (xxx > 100) |  | 
12 | Cc1c(C(=O)NCCO)ccc2nn(CC3CCN(C(=O)c4ccc(-c5ccc(F)cc5)cc4)CC3)cc12 [Example 410, 2-({1-[(4′-fluorobiphenyl-4-yl)carbonyl]piperidin-4-yl}methyl)-N-(2-hydroxyethyl)-4-methyl-2H-indazol-5-carboxamide] |  | 90.4 nM | xxx (xxx > 100) | xxx (xxx > 100) |  | 
13 | Cc1c(C(=O)NCCOC(C)(C)C)ccc2nn(CC3CCN(C(=O)c4ccc(Oc5ccc(C(F)(F)F)cc5)cc4)CC3)cc12 [Example 114, N-(2-tert-butoxyethyl)-4-methyl-2-[(1-{4-[4-(trifluoromethyl)-phenoxy]benzoyl}-piperidin-4-yl)methyl]-2H-indazol-5-carboxamide] |  | 6.08 nM | xxx (xxx > 100) | xxx (xxx > 100) |  | 
14 | COCCNC(=O)c1ccc2nn(C[C@@H]3CCN(C(=O)c4ccc(Cl)cc4)C3)cc2c1C [Example 217, 2-{[(R)-1-(4-chlorobenzoyl)pyrrolidin-3-yl]methyl}-N-(2-methoxyethyl)-4-methyl-2H-indazol-5-carboxamide] |  | 114 nM | xxx (xxx > 100) | xxx (xxx > 100) |  | 
15 | COCCNC(=O)c1ccc2nn(CC3CCN(C(=O)c4ccc(C(F)F)cc4)CC3)cc2c1C [Example 32, 2-({1-[4-(difluoro-methyl)benzoyl]-piperidin-4-yl}-methyl)-N-(2-methoxyethyl)-4-methyl-2H-indazol-5-carboxamide] |  | 10.4 nM | xxx (xxx > 100) | xxx (xxx > 100) |  | 
16 | COc1c(C(=O)NCCN2CCOCC2)ccc2nn(CC3CN(C(=O)c4ccc(Cl)cc4)C3)cc12 [Example 258, 2-{[1-(4-chlorobenzoyl)azetidin-3-yl]methyl}-4-methoxy-N-(2-morpholinoethyl)-2H-indazol-5-carboxamide] |  | 109 nM | xxx (xxx > 100) | xxx (xxx > 100) |  | 
17 | COCCNC(=O)c1ccc2nn(CC3CCN(C(=O)c4ccc(C5CC5)cc4)CC3)cc2c1C [Example 20, 2-{[1-(4-cyclopropyl-benzoyl)piperidin-4-yl]methyl}-N-(2-methoxyethyl)-4-methyl-2H-indazol-5-carboxamide] |  | 7.33 nM | xxx (xxx > 100) | xxx (xxx > 100) |  | 
18 | COCCNC(=O)c1ccc2nn(CC3CCN(C(=O)c4ccc(-c5ccccc5C)cc4)CC3)cc2c1C [Example 50, N-(2-methoxyethyl)-4-methyl-2-({1-[(2′-methylbiphenyl-4-yl)carbonyl]piperidin-4-yl}methyl)-2H-indazol-5-carboxamide] |  | 3.18 nM | xxx (xxx > 100) | xxx (xxx > 100) |  | 
19 | COCCNC(=O)c1ccc2nn(CC3CN(C(=O)c4ccc5ccc(OC)cc5c4)C3)cc2c1C [Example 175, N-(2-methoxyethyl)-2-{[1-(7-methoxy-2-naphthoyl)azetidin-3-yl]methyl}-4-methyl-2H-indazol-5-carboxamide] |  | 8.05 nM | xxx (xxx > 100) | xxx (xxx > 100) |  | 
